# Key:
# HeLa S3 cells = experiment: HeLa S3 cell growth inhibition test (neutral red staining); format: cell-based; details: Homo sapiens, 72 hours culture with test compound, neutral red absorbance at 550 nm
# Description: Test Example 1: HeLa S3 Cell Growth Inhibition Test
# Each 0.1 ml of HeLa S3 cells which had been prepared to 3 x 10^4 cells/ml using a medium consisted of MEM medium, 10% fetal bovine serum and 2 mM glutamine was distributed in each well of 96 well-microtiter plate. HeLa S3 was cultured at 37°C in a CO2 incubator for one night, each 0.05 ml of test compounds which had been appropriately diluted with the culture solution was added thereto and the mixture was cultured at 37°C for 72 hours in a CO2 incubator. Supernatant was removed, each 0.1 ml of the culture solution containing 0.02% neutral red was added to the residue, the mixture was incubated at 37°C for one hour in a CO2 incubator and the cells were stained. Supernatant was removed and the residue was washed once with physiological saline. Then, the pigment was extracted with 0.001 N hydrochloric acid/30% ethanol and the absorbance at 550 nm was measured by a microplatereader. A concentration of the test compound (IC50) at which the growth of cell is inhibited by 50% was calculated by comparing the absorbance of non-treated cells and that of cells treated with a predetermined concentration of the test compound.
# P388 mouse leukemia = experiment: Effect upon P388 ascites tumor (increased life span); format: in vivo; details: consecutive 5 days from 24 hours after implantation of the tumor, male CDF1 mice
# Description: Test Example 2: Effect upon P388 Ascites Tumor […] The resultant suspension was administered once 24 hours after implantation of the tumor, or repeatedly for consecutive 5 days from 24 hours after implantation of the tumor. The average survival day (T) in a group was calculated from the survival days of the respective mice in the group administered with the test compound at each dose. On the other hand, the average survival day (C) of a group which was not administered was measured, and the increased life span [ILS (%)] was calculated according to the following equation: [(T - C)/C] x 100 (%) [formula]
Compound,IC50 (HeLa S3 cells),also measured
"COc1cc(C(=O)C(C)=Cc2c[nH]c3ccccc23)cc(Br)c1OC [Compound 10, 1-(3-Bromo-4-dimethoxyphenyl)-3-(indol-3-yl)-2-methyl-2-propen-1-one]",6.6 nM,–
"CCCOc1c(OC)cc(C(=O)C(C)=Cc2c[nH]c3cc(C)ccc23)cc1OC [Compound 19, 1-(3,5-Dimethoxy-4-propoxyphenyl)-2-methyl-3-(6-methylindol-3-yl)-2-propen-1-one]",5.2 nM,–
"COc1ccc(C(=O)C(C)=Cc2c[nH]c3ccccc23)c(OC)c1OC [Compound 24, 3-(Indol-3-yl)-2-methyl-1-(2,3,4-trimethoxyphenyl)-2-propen-1-one]",22 nM,–
"CCOc1cc(C(=O)C(C)=Cc2c[nH]c3ccccc23)cc(OC)c1OC [Compound 9, 1-(5-Ethoxy-3,4-dimethoxyphenyl)-3-(indol-3-yl)-2-methyl-2-propen-1-one]",3.2 nM,–
"CCOc1c(OC)cc(C(=O)C(C)=Cc2c[nH]c3cc(Cl)ccc23)cc1OC [Compound 18, 3-(6-Chloroindol-3-yl)-1-(4-ethoxy-3,5-dimethoxyphenyl)-2-methyl-2-propen-1-one]",6.3 nM,–
"COc1cc(C(=O)C(C)=Cc2c[nH]c3cc(C)ccc23)cc(OC)c1OCC(C)C [Compound 15, 1-(4-Isobutyloxy-3,5-dimethoxyphenyl)-2-methyl-3-(6-methylindol-3-yl)-2-methyl-2-propen-1-one]",18 nM,–
"CCOc1c(OC)cc(C(=O)C(C)=Cc2c[nH]c3ccccc23)cc1OC [Compound 5, 1-(4-Ethoxy-3,5-dimethoxyphenyl)-3-(indol-3-yl)-2-methyl-2-propen-1-one]",2.5 nM,ILS (%) [Dose (mg/kg)] five consec. admin. (P388 mouse leukemia; dose 3.1 mg/kg): 41 ( 3.1) %
"COc1cc(C(=O)C(C)=Cc2c[nH]c3ccccc23)cc2c1OCO2 [Compound 8, 3-(Indol-3-yl)-1-(3-methoxy-4,5-methylenedioxyphenyl)-2-methyl-2-propen-1-one]",6.1 nM,ILS (%) [Dose (mg/kg)] five consec. admin. (P388 mouse leukemia; dose 6.3 mg/kg): 50 ( 6.3) %
"CCc1c(OC)cc(C(=O)C(C)=Cc2c[nH]c3ccccc23)cc1OC [Compound 7, 1-(4-Ethyl-3-dimethoxyphenyl)-3-(indol-3-yl)-2-methyl-2-propen-1-one]",64 nM,ILS (%) [Dose (mg/kg)] five consec. admin. (P388 mouse leukemia; dose 25 mg/kg): 40 ( 25) %
"COc1cc(C(=O)C(C)=Cc2c[nH]c3cc(C)ccc23)cc2c1OCO2 [Compound 12, 1-(3-Methoxy-4,5-methylenedioxyphenyl)-2-methyl-3-(6-methylindol-3-yl)-2-propen-1-one]",2.3 nM,–
"CCOc1c(OC)cc(C(=O)C(C)=Cc2c[nH]c3cc(CC)ccc23)cc1OC [Compound 16, 1-(4-Ethoxy-3,5-dimethoxyphenyl)-3-(6-ethylindol-3-yl)-2-methyl-2-propen-1-one]",6.2 nM,–
"COc1cc(C(=O)C(C)=Cc2c[nH]c3ccccc23)cc(OC)c1OCC(C)C [Compound 6, 3-(Indol-3-yl)-1-(4-isobutyloxy-3,5-dimethoxyphenyl)-2-methyl-2-propen-1-one]",9.4 nM,ILS (%) [Dose (mg/kg)] five consec. admin. (P388 mouse leukemia; dose 3.1 mg/kg): 43 ( 3.1) %
"CCCCOc1c(OC)cc(C(=O)C(C)=Cc2c[nH]c3cc(C)ccc23)cc1OC [Compound 20, 1-(4-Buthoxy-3,5-dimethoxyphenyl)-2-methyl-3-(6-methylindol-3-yl)-2-propen-1-one]",6.1 nM,–
"CCOc1c(OC)cc(C(=O)C(C)=Cc2c[nH]c3cc(C)ccc23)cc1OC [Compound 11, 1-(4-Ethoxy-3,5-dimethoxyphenyl)-2-methyl-3-(6-methylindol-3-yl)-2-propen-1-one]",6.7 nM,–
"CCOc1cc(C(=O)C(C)=Cc2c[nH]c3ccccc23)cc(OCC)c1OCC [Compound 4, 3-(Indol-3-yl)-2-methyl-1-(3,4,5-triethoxyphenyl)-2-propen-1-one]",22 nM,–

# Source: patent publication EP0770601A1, “PROPENONE DERIVATIVES” (Kyowa Hakko Kogyo Co., Ltd., priority 1995, dated 1996)
